Measured values: patent US8778964B2, “Hydroxy-substituted imidazo[1,2-a]-pyridinecarboxamides and their use” (Bayer Pharma Aktiengesellschaft, priority 2012, dated 2014)
Where a name gives a salt, the structure may show the parent alone.

Test system: recombinant guanylate cyclase reporter cell line
Test: Action on recombinant guanylate cyclase reporter cell line (MEC)
Assay type: cell-based
Conditions: in some cases mean values obtained from individual determinations
Procedure: B-2. Action on Recombinant Guanylate Cyclase Reporter Cell Line
The cellular action of the compounds according to the invention is determined on a recombinant guanylate cyclase reporter cell line, as described in F. Wunder et al., Anal. Biochem. 339, 104-112 (2005).
Representative values (MEC=minimal effective concentration) for the compounds according to the invention are shown in the following table (in some cases as mean values obtained from individual determinations): […]

Compound | minimal effective concentration
Cc1nc2c(OCc3cccc(Cl)c3Cl)cccn2c1C(=O)NCCC1(O)CCCC1 [Example 47, 8-[(2,3-dichlorobenzyl)oxy]-N-[2-(1-hydroxycyclopentyl)ethyl]-2-methylimidazo[1,2-a]-pyridine-3-carboxamide] | 0.3 µM
Cc1cccc(COc2cccn3c(C(=O)NC(CO)CO)c(C)nc23)c1Cl [Example 52, 8-[(2-chloro-3-methylbenzyl)oxy]-N-(1,3-dihydroxypropan-2-yl)-2-methylimidazo[1,2-a]-pyridine-3-carboxamide] | 10 µM
Cc1nc2c(OCC3CCCCC3)cccn2c1C(=O)NCCOCCO [Example 86, 8-(cyclohexylmethoxy)-N-[2-(2-hydroxyethoxy)ethyl]-2-methylimidazo[1,2-a]-pyridine-3-carboxamide] | 0.65 µM
Cc1nc2c(OCc3c(F)cccc3F)cccn2c1C(=O)NC(CO)CCCC(F)(F)F (racemic) [Example 114, rac-8-[(2,6-difluorobenzyl)oxy]-2-methyl-N(6,6,6-trifluoro-1-hydroxyhexan-2-yl)imidazo[1,2-a]pyridine-3-carboxamide] | 0.03 µM
Cc1nc2c(OCc3c(F)cccc3F)cccn2c1C(=O)NC(C)C(O)C(F)(F)F (single isomer, unassigned) [Example 143, 8-[(2,6-Difluorobenzyl)oxy]-2-methyl-N-(4,4,4-trifluoro-3-hydroxybutan-2-yl)imidazo[1,2-a]-pyridine-3-carboxamide] | 0.03 µM
Cc1nc2c(OCC3CCCCC3)cccn2c1C(=O)NC(C)CO (stereo not drawn) [Example 84, 8-(cyclohexylmethoxy)-N-(1-hydroxypropan-2-yl)-2-methylimidazo[1,2-a]pyridine-3-carboxamide] | 0.3 µM
Cc1nc2c(OCc3c(F)cccc3F)cccn2c1C(=O)NC(CCC(F)(F)F)C(C)(C)O (racemic) [Example 149, rac-8-[(2,6-difluorobenzyl)oxy]-2-methyl-N-(6,6,6-trifluoro-2-hydroxy-2-methylhexan-3-yl)imidazo[1,2-a]pyridine-3-carboxamide] | 0.1 µM
CCCC[C@H](CO)NC(=O)c1c(C)nc2c(OCc3c(F)cccc3F)cc(F)cn12 [Example 132, 8-[(2,6-difluorobenzyl)oxy]-6-fluoro-N-[(2R)-1-hydroxyhexan-2-yl]-2-methylimidazo[1,2-a]pyridine-3-carboxamide] | 0.03 µM
Cc1nc2c(OCc3c(F)cccc3F)cccn2c1C(=O)N[C@@H](CO)C(C)(C)O [Example 165, 8-[(2,6-Difluorobenzyl)oxy]-N-[(2S)-1,3-dihydroxy-3-methylbutan-2-yl]-2-methylimidazo[1,2-a]-pyridine-3-carboxamide] | 1 µM
Cc1nc2c(OCC3CCCCC3)cccn2c1C(=O)NCCO [Example 76, 8-(cyclohexylmethoxy)-N-(2-hydroxyethyl)-2-methylimidazo[1,2-a]pyridine-3-carboxamide formate] | 0.3 µM
CCC(O)CNC(=O)c1c(C)nc2c(OCc3c(F)cccc3F)cccn12 (racemic) [Example 30, (rac)-8-[(2,6-difluorobenzyl)oxy]-N-(2-hydroxybutyl)-2-methylimidazo[1,2-a]pyridine-3-carboxamide] | 0.3 µM
Cc1nc2c(OCC3CCCCC3)cccn2c1C(=O)NC1CCCC1O (stereo not drawn) [Example 83, 8-(cyclohexylmethoxy)-N-(2-hydroxycyclopentyl)-2-methylimidazo[1,2-a]pyridine-3-carboxamide] | 0.3 µM
Cc1nc2c(OCc3c(F)cccc3F)cccn2c1C(=O)NC1(CO)CCCC1 [Example 31, 8-[(2,6-difluorobenzyl)oxy]-N-[1-(hydroxymethyl)cyclopentyl]-2-methylimidazo[1,2-a]pyridine-3-carboxamide] | 1 µM
Cc1nc2c(OCc3c(F)cccc3F)cccn2c1C(=O)N[C@H]1c2ccccc2C[C@H]1O [Example 40, 8-[(2,6-difluorobenzyl)oxy]-N-[(1S,2R)-2-hydroxy-2,3-dihydro-1H-inden-1-yl]-2-methylimidazo[1,2-a]pyridine-3-carboxamide] | 0.1 µM
Cc1nc2c(OCc3c(F)cccc3F)cccn2c1C(=O)NC(CO)c1ccc(S(C)(=O)=O)cc1 (racemic) [Example 120, rac-8-[(2,6-difluorobenzyl)oxy]-N-{2-hydroxy-1-[4-(methylsulphonyl)phenyl]ethyl}-2-methylimidazo[1,2-a]pyridine-3-carboxamide] | 1 µM
CCC(CO)NC(=O)c1c(C)nc2c(OCC3CCCCC3)cccn12 (racemic) [Example 69, (rac)-8-(cyclohexylmethoxy)-N-(1-hydroxybutan-2-yl)-2-methylimidazo[1,2-a]pyridine-3-carboxamide formate] | 0.1 µM
Cc1cc(OCCC(C(F)(F)F)C(F)(F)F)c2nc(C)c(C(=O)NC(CCCC(F)(F)F)C(C)(C)O)n2c1 (racemic) [Example 170, rac-2,6-Dimethyl-N-(7,7,7-trifluoro-2-hydroxy-2-methylheptan-3-yl)-8-[4,4,4-trifluoro-3-(trifluoromethyl)butoxy]imidazo[1,2-a]pyridine-3-carboxamide] | 3 µM
CCCC[C@H](CO)NC(=O)c1c(C)nc2c(OCCC(C)C)cccn12 [Example 159, N-[(2R)-1-Hydroxyhexan-2-yl]-2-methyl-8-(3-methylbutoxy)imidazo[1,2-a]pyridine-3-carboxamide] | 1 µM
CCCC[C@H](CO)NC(=O)c1c(C)nc2c(OCc3ccccc3)cccn12 [Example 16, 8-(Benzyloxy)-N-[(2R)-1-hydroxyhexan-2-yl]-2-methylimidazo[1,2-a]pyridine-3-carboxamide] | 1 µM
Cc1nc2c(OCc3c(F)cccc3F)cccn2c1C(=O)NC[C@@H]1CCCC[C@H]1O (racemic) [Example 27, (rac)-trans-8-[(2,6-difluorobenzyl)oxy]-N-[(2-hydroxycyclohexyl)methyl]-2-methylimidazo[1,2-a]pyridine-3-carboxamide] | 0.3 µM
CCCC[C@@H](NC(=O)c1c(C)nc2c(OCc3c(F)cccc3F)cccn12)C(C)O (stereo partly drawn) [Example 139, 8-[(2,6-Difluorobenzyl)oxy]-N-[(3R)-2-hydroxyheptan-3-yl]-2-methylimidazo[1,2-a]pyridine-3-carboxamide] | 0.03 µM
CCCC[C@H](CO)NC(=O)c1c(C)nc2c(OCCC(C(F)(F)F)C(F)(F)F)cc(C)cn12 [Example 169, N-[(2R)-1-Hydroxyhexan-2-yl]-2,6-dimethyl-8-[4,4,4-trifluoro-3-(trifluoromethyl)butoxy]imidazo-[1,2-a]pyridine-3-carboxamide] | 0.3 µM
CCCC[C@H](CO)NC(=O)c1c(C)nc2c(OCc3c(F)cccc3F)cc(Cl)cn12 [Example 131, 6-chloro-8-[(2,6-difluorobenzyl)oxy]-N-[(2R)-1-hydroxyhexan-2-yl]-2-methylimidazo[1,2-a]pyridine-3-carboxamide] | 0.01 µM
Cc1nc2c(OCc3c(F)cccc3F)cccn2c1C(=O)NCCCCO [Example 23, 8-[(2,6-difluorobenzyl)oxy]-N-(4-hydroxybutyl)-2-methylimidazo[1,2-a]pyridine-3-carboxamide] | 0.3 µM
